{
  "source": "patent US12187754B2",
  "about": "“LpxC inhibitors and uses thereof” (Blacksmith Medicines, Inc., priority 2021, dated 2025)",
  "key": {"S. aureus": {"system": "S. aureus", "assay": "Inhibition of gram-positive bacterial cell lines", "type": "cell-based"}, "[1]": {"assay": "Solubility under physiological conditions", "type": "physicochemical", "conditions": "for example at pH 7.4"}, "K. pneumoniae BAA-1705": {"system": "K. pneumoniae BAA-1705", "assay": "Mouse urinary tract infection model, K. pneumoniae BAA-1705", "type": "in vivo", "conditions": "for Bladder Terminal Burden / Kidney Terminal Burden / Urine Terminal Burden: mice, 96 hours", "experimental": "(§1) Compound A and its prodrugs as disclosed herein were tested in an in vivo mouse model for Urinary Tract Infection. Briefly, mice were infected with E. coli UTI 89 to cause a UTI infection and were treated with compounds disclosed herein.\n(§2) Five days prior to infection, C3H/HeNR female mice were preconditioned with drinking water containing 5% glucose. Mice were rendered unconscious using parenteral anaesthesia (ketamine/medetomidine) then 0.05 mL of a bacterial suspension of E. coli UTI 89 (1.2×10^9 CFU/mL (6.2×10^7 CFU/mouse) was administered transurethrally into the bladder to cause an ascending UTI infection.\n[…]; […]; […]; […] for 3 days (six doses total). Ciprofloxacin was given as a control at 10 mg/kg/dose IV every 12 hours. Compound A was formulated in 10% DMSO, 5% Cremophor, 85% SFI; the remaining compounds used a sterile phosphate-buffered saline (PBS) formulation. Each group was comprised of five mice each.\n(§3) Urine, bladder, and kidney were harvested at 24 h (pre-treatment group only) and 96 h post infection and quantitatively cultured.\nThe experiment was repeated using K. pneumoniae BAA-1705 (MDR; MIC90 strain). Table 5 and FIG. 2 summarize the results, showing the average terminal burden of K. pneumoniae BAA-1705 in urine, bladder, and kidney at the conclusion of the study (96 hours)."}, "K. pneumoniae": {"system": "K. pneumoniae", "assay": "MIC against gram-negative bacterial cell lines (K. pneumoniae)", "type": "cell-based", "conditions": "Klebsiella pneumoniae"}, "E. coli": {"system": "E. coli", "assay": "MIC against gram-negative bacterial cell lines (E. coli)", "type": "cell-based", "conditions": "Escherichia coli"}, "E. coli UTI 89": {"system": "E. coli UTI 89", "assay": "Mouse urinary tract infection model, E. coli UTI 89", "type": "in vivo", "conditions": "for Bladder Terminal Burden / Kidney Terminal Burden / Urine Terminal Burden: mice, 96 h post infection", "experimental": "as §1, §2\nIV or PO treatment was started 24 h post infection with 3, 10, 15 mg/kg/dose IV Compound A; 3, 10, 15.30 mg/kg/dose IV Compound 1; 3, and 10 mg/kg/dose IV Compound 2; and 30 mg/kg/dose oral of either Compound 1 or 2 administered every 12 hours for 3 days (six doses total). Ciprofloxacin was given as a control at 10 mg/kg/dose IV every 12 hours. Compound A was formulated in 10% DMSO, 5% Cremophor, 85% SFI; the remaining compounds used a sterile phosphate-buffered saline (PBS) formulation. Each group was comprised of five mice each.\nas §3"}, "Thermal solubility": {"assay": "Thermal solubility", "type": "physicochemical", "conditions": "aqueous buffer, thermodynamic from solid; 100 mM potassium phosphate buffer pH 7.4, 24 h, 25° C.", "experimental": "Solubility of the compounds was assessed in 100 mM potassium phosphate buffer at pH 7.4 after 24 hours at room temperature.\nAccurately weighed K2HPO4 (2.79 g) and KH2PO4 (0.54 g) were dissolved in 90 mL of Milli-Q water and mixed well. Volume was made upto 200 mL with Milli-Q water and mixed well. The prepared phosphate buffer was stored at 2-8° C. and used within a month.\nApproximately 30 mg of test compound was added to approximately 1 mL of the potassium phosphate buffer, pH 7.4. If the visual inspection indicated precipitation, no further compound is added. If the visual inspection indicated a clear solution, further increments of compound were added until the solution was no longer clear.\nTest compounds and assay controls (caffeine) were further incubated for 24 h at 25° C. temperature on a thermomixer at a shaking speed of 1200 rpm. After incubation, the samples (200 μL) were transferred to a filtration plate to which a plate was attached at bottom for collecting the filtrate. The plate was centrifuged at 4000 rpm for 2 min and the filtrate was collected in the attached bottom plate. The filtrates were diluted using filtered buffer based on the initial amount of compound added. All samples were analysed by HPLC-UV method against 8 point calibration curve with concentrations ranging from 2.5 μg/mL to 1000 μg/mL."}, "[2]": {"conditions": "3 mg/kg/dose IV every 12 hours for 3 days"}, "[3]": {"conditions": "10 mg/kg/dose IV every 12 hours for 3 days"}, "[4]": {"conditions": "15 mg/kg/dose IV every 12 hours for 3 days"}, "[5]": {"conditions": "E. coli UTI 89, mice, IV administration"}},
  "data": [
    {"smiles": "N#CC1CN(C[C@@H](Cc2nc[nH]c(=O)c2O)c2ccc(C#Cc3ccc(CN4CCOCC4)cc3)cc2)C1", "note": "[Compound A, (S)-1-(3-(5-hydroxy-6-oxo-1,6-dihydropyrimidin-4-yl)-2-(4-((4-(morpholinomethyl)phenyl)ethynyl)phenyl)propyl)azetidine-3-carbonitrile]", "values": [
      {"measurement": "inhibition of gram-positive bacterial cell lines", "setting": "S. aureus", "result": "does not inhibit"},
      {"measurement": "solubility", "setting": "[1]", "result": "< 1000", "unit": "µg/mL"},
      {"measurement": "Bladder Terminal Burden", "setting": "K. pneumoniae BAA-1705; 10 mg/kg/dose IV", "result": "9.29 × 10^1 CFU/mL"},
      {"measurement": "Kidney Terminal Burden", "setting": "K. pneumoniae BAA-1705; 10 mg/kg/dose IV", "result": "3.47 × 10^2 CFU/mL"},
      {"measurement": "Urine Terminal Burden", "setting": "K. pneumoniae BAA-1705; 10 mg/kg/dose IV", "result": "2.72 × 10^0 CFU/mL"},
      {"measurement": "Bladder Terminal Burden", "setting": "K. pneumoniae BAA-1705; 30 mg/kg/dose IV", "result": "BLoD"},
      {"measurement": "Kidney Terminal Burden", "setting": "K. pneumoniae BAA-1705; 30 mg/kg/dose IV", "result": "7.48 × 10^1 CFU/mL"},
      {"measurement": "Urine Terminal Burden", "setting": "K. pneumoniae BAA-1705; 30 mg/kg/dose IV", "result": "7.41 × 10^3 CFU/mL"},
      {"measurement": "Bladder Terminal Burden", "setting": "K. pneumoniae BAA-1705; 60 mg/kg/dose IV", "result": "BLoD"},
      {"measurement": "Kidney Terminal Burden", "setting": "K. pneumoniae BAA-1705; 60 mg/kg/dose IV", "result": "3.17 × 10^0 CFU/mL"},
      {"measurement": "Urine Terminal Burden", "setting": "K. pneumoniae BAA-1705; 60 mg/kg/dose IV", "result": "BLoD"},
      {"measurement": "Bladder Terminal Burden", "setting": "K. pneumoniae BAA-1705; 90 mg/kg/dose PO", "result": "BLoD"},
      {"measurement": "Kidney Terminal Burden", "setting": "K. pneumoniae BAA-1705; 90 mg/kg/dose PO", "result": "3.01 × 10^1 CFU/mL"},
      {"measurement": "Urine Terminal Burden", "setting": "K. pneumoniae BAA-1705; 90 mg/kg/dose PO", "result": "7.06 × 10^0 CFU/mL"},
      {"measurement": "bacterial burden in kidney relative to vehicle-treated controls and the ciprofloxacin control", "setting": "K. pneumoniae BAA-1705; K. pneumoniae BAA-1705, mice", "result": "statistically significant reductions in bacterial burden in kidney"},
      {"measurement": "bacterial burden in urine relative to vehicle-treated controls and the ciprofloxacin control", "setting": "K. pneumoniae BAA-1705; K. pneumoniae BAA-1705, mice, except for the 30 mg/kg IV Compound A experiment", "result": "statistically significant reductions in bacterial burden in urine"},
      {"measurement": "MIC", "setting": "K. pneumoniae", "result": "< 1", "unit": "µg/mL"},
      {"measurement": "MIC", "setting": "E. coli", "result": "< 1", "unit": "µg/mL"},
      {"measurement": "Bladder Terminal Burden", "setting": "E. coli UTI 89; [2]", "result": "2.57 × 10^5 CFU/mL"},
      {"measurement": "Kidney Terminal Burden", "setting": "E. coli UTI 89; [2]", "result": "3.72 × 10^3 CFU/mL"},
      {"measurement": "Urine Terminal Burden", "setting": "E. coli UTI 89; [2]", "result": "3.03 × 10^5 CFU/mL"},
      {"measurement": "Bladder Terminal Burden", "setting": "E. coli UTI 89; [3]", "result": "3.48 × 10^5 CFU/mL"},
      {"measurement": "Kidney Terminal Burden", "setting": "E. coli UTI 89; [3]", "result": "4.44 × 10^2 CFU/mL"},
      {"measurement": "Urine Terminal Burden", "setting": "E. coli UTI 89; [3]", "result": "6.26 × 10^4 CFU/mL"},
      {"measurement": "Bladder Terminal Burden", "setting": "E. coli UTI 89; [4]", "result": "2.62 × 10^5 CFU/mL"},
      {"measurement": "Kidney Terminal Burden", "setting": "E. coli UTI 89; [4]", "result": "1.21 × 10^2 CFU/mL"},
      {"measurement": "Urine Terminal Burden", "setting": "E. coli UTI 89; [4]", "result": "3.78 × 10^3 CFU/mL"},
      {"measurement": "bacterial burden in urine relative to vehicle-treated controls", "setting": "E. coli UTI 89; E. coli UTI 89, mice", "result": "statistically significant reductions in bacterial burden in urine"},
      {"measurement": "bacterial burden in bladder relative to vehicle-treated controls", "setting": "E. coli UTI 89; [5]", "result": "reductions in bacterial burden in bladder"},
      {"measurement": "bacterial burden in kidney relative to vehicle-treated control", "setting": "E. coli UTI 89; [5]", "result": "statistically significant reductions in bacterial burden in kidney"},
      {"measurement": "solubility at 24 h", "setting": "Thermal solubility", "result": "< 50", "unit": "µg/mL"}
    ]}
  ]
}
